Legend:
[1] = tested on: ERα
Description: MNAR-Nuclear receptors interaction analysis was performed. […] Formed complexes were isolated using anti-FLAG sepharose beads, boiled in 2×SDS buffer and loaded on SDS gel.
With full-length flag-MNAR, we further evaluated whether MNAR interaction with estrogen receptors is affected by ER ligands. […] Formed complexes were isolated using anti-FLAG sepharose beads.

[2] = tested on: ERα; experiment: MNAR effect on ER-mediated transcription, 2xERE-tk-luciferase reporter in HepG2 cells; format: cell-based; conditions: for MNAR stimulation of ER activity with ligand / effect of kinase inhibitor on MNAR stimulation of ER activity / effect of Src inhibitor on MNAR stimulation of E2 induced ERα activity: HepG2, ERα and MNAR; for MNAR stimulation of ER activity with ligand: ligand at 10 nM; for effect of kinase inhibitor on MNAR stimulation of ER activity: 10 nM E2 plus 1 μM inhibitor; for effect of Src inhibitor on MNAR stimulation of E2 induced ERα activity: treated for 24 hr with 17β-estradiol and inhibitor
Description: Transient Transfection Analysis: HepG2 and COS-7 cells were routinely maintained in DMEM supplemented with 10% FBS. Either 50,000 cells per well of HepG2 or 30,000 per well of COS-7 were seeded in 96 well plates in DMEM without phenol red supplemented with 10% charcoal stripped serum. 100 ng of 2×ERE-tk-Luc reporter, 10 ng of pCMV-O-gal internal control, either 1 ng of pcDNA3.1 ERα or 5 ng of pcDNA3.1 ERβ expression vector with or without increasing amount of pcDNA3.1 MNAR or pcDNA3.1 SRC3 expression plasmids were transfected using 0.5 ul of lipofectamine 2000 (Life Technologies, Rockville, Md.) according to protocol. Cells were stimulated either with 10^−8M 17-b-estradiol, tamoxifen, or ICI for 24 hr before being processed for luciferase and β-Galactosidase activity.
(§1) A—HepG2 cells were transfected with expression plasmids for ERα, MNAR and/or SRC3. […] B—HepG2 cells were transfected with expression vectors for ERαand MNAR. […] (SEQ ID NO: 11) from Sequitur, Inc. (Natick, Mass.) or reverse control (C) oligomers complexed with 1 μg/ml of Lipofectamine 2000 in white media.
To evaluate if MNAR overexpression affects transcriptional activity of ER, HepG2 cells were transiently cotransfected with plasmids for expression of ERα and MNAR.

[3] = tested on: cSrc; experiment: Kinase reaction on immunoprecipitates from MCF-7 cells ([32P]γATP); format: cell-based, human; conditions: material coprecipitated with anti-Src and anti-ER antibodies from MCF-7 cells, E2 10 nM 5 minutes
Description: FLAG-MNAR (panel A), cSrc (panel B), or ERα (panels C, D and E) were immunoprecipitated from the cell extracts using corresponding antibodies. Immunoprecipitates were incubated with [32P]γATP for 30 minutes at 30° C. (panels A-C), or with [32P]-γATP and enolase (panel D). Kinase reaction was stopped by boiling in 2×SDS buffer. Phosphorylated material was loaded on SDS gel, which was then dried and subjected to autoradiography.
We evaluated whether MNAR and ER interacted and activated Src kinase in MCF-7 cells. […] Flag-MNAR (FIG. 10, panel A), ERα (FIG. 10, panel C and D), and csrc (FIG. 10, panel B) were immunoprecipitated from the cell extracts using their corresponding antibodies. […] Immunoprecipitates were incubated with [32P]γATP at 30° C. for 30 minutes. Reaction was stopped by boiling in 2×SDS buffer and resolved on a SDS PMG.

[4] = tested on: Erk 1 and 2; experiment: E2 induced Erk kinase 1 and 2 activation in MCF7 cells (Western blotting); format: cell-based, human; conditions: for level of total Erk 1 and 2: Erk1/2 antibodies; for effect on E2 induced Erk 1 and 2 activation: MCF7 cells overexpressing MNAR or treated with 100 nM antisense, 10 nM E2 5 minutes
From the text: (§2) It has been previously reported that activation of Src by estradiol triggers Ras/Erks kinase pathway. We expected that MNAR induced Src activation may lead to activation of Erk kinases 1 and 2. […] MNAR antisense oligonucleotide (SEQ ID NO:11) was developed at Sequitur Inc. (Natick, Mass.).

[5] = tested on: MNAR; experiment: MNAR expression in MCF-7 cells (TaqMan, Western blotting); format: cell-based, human
Description: as §1, with “MNAR. […] C—MCF-7 cells were transfected with 100 nM antisense (AS)” for “MNAR.”, “media. […] MNAR antiserum was generated against […] peptide encoding amino acids 509-520 ([…]) (SEQ ID NO: 31) of the MNAR.” for “media.”
as §2
(§3) We next used an antisense approach to assess MNAR's role in estrogen regulation of gene transcription. […] MCF-7 cells were transfected with 100 nM antisense or reverse control oligomers. […] TaqMan analysis was performed using a primer/probe set designed to target MNAR, pS2 and Cathepsin D—two genes known to be regulated by estrogens in MCF-7 cells. FIG. 9C presents the levels of MNAR, pS2 and Cathepsin D mRNA expression, normalized to GAPDH mRNA.

[6] = tested on: cSrc; conditions: ERα with MNAR and cSrc, 1 μM E2, compared to unliganded ERα
From the text: ER-MNAR-cSrc Interaction Analysis. […] Formed complexes were isolate by pulled-down with anti-cSrc or anti-Lck antibodies and protein A agarose, boiled in 2×SDS buffer and resolved on an SDS-PAGE gel. Gel was dried and subjected to autoradiography.
To address this question, we have used in vitro transcribed/translated estrogen receptors ERα, ERβ and MNAR. […] Formed complexes were pulled-down with anti-cSrc or anti-Lck antibodies and protein A sepharose and then resolved on an SDS gel.

[7] = tested on: pS2; experiment: ER-mediated gene expression in MCF-7 cells (TaqMan); format: cell-based, human; conditions: 100 nM antisense
Description: as §1, with “MNAR. […] C—MCF-7 cells were transfected with 100 nM antisense (AS)” for “MNAR.”, “media. […] MNAR antiserum was generated against […] peptide encoding amino acids 509-520 ([…]) (SEQ ID NO: 31) of the MNAR.” for “media.”
as §3

[8] = tested on: Cathepsin D; experiment: as above; format: cell-based, human; conditions: 100 nM antisense
Description: as §1, with “MNAR. […] C—MCF-7 cells were transfected with 100 nM antisense (AS)” for “MNAR.”, “media. […] MNAR antiserum was generated against […] peptide encoding amino acids 509-520 ([…]) (SEQ ID NO: 31) of the MNAR.” for “media.”
as §3

[9] = tested on: cSrc; experiment: Analysis of cSrc enzymatic activity with acidified enolase as substrate; format: biochemical; conditions: acid denatured enolase as substrate
Description: Analysis of cSrc Enzymatic Activity. […] Before reaction proteins were incubated for 1 hr at 4° C. Phosporylation reaction was started by addition of [32P]-γATP and continued at 30° C. for 10 min. Reaction was stopped by addition of 2×SDS buffer. Phosphorylated proteins were separated by SDS-PAGE and the dried gel was subjected to autoradiography.

[10] = tested on: ER; experiment: MNAR structural-functional analysis, ER-stimulated transcription in HepG2 cells; format: cell-based; conditions: MNAR deletion mutants transfected into HepG2 cells
Description: To delineate the regions of MNAR that are responsible for interaction with estrogen receptor and c-Src tyrosine kinase, we performed functional evaluation of MNAR deletion mutants (FIG. 12). A series of C-terminal truncations of MNAR was generated using specially designed oligonucleotides, by amplifying appropriate fragments and cloning them into appropriate expression vectors. These mutants were tested for their abilities to enhance ER-stimulated transcription when transfected into HepG2 cells.
At the C-terminus, MNAR contains a region rich in both proline and glutamic acid. To delineate the regions on MNAR responsible for interaction with estrogen receptors and c-src tyrosine kinase, a functional evaluation of MNAR deletion mutants was performed (FIG. 12). A series of C-terminal truncations of MNAR was generated using specially designed oligonucleotides, by amplifying appropriate fragments and cloning them into appropriate expression vectors. These mutants were tested for their abilities to enhance ER-stimulated transcription when transfected into HepG2 cells.

Molecule: CC/C(=C(\c1ccc(O)cc1)c1ccc(OCCN(C)C)cc1)c1ccccc1 [4(OH) tamoxifen]
- ERα interaction with MNAR [1]: inhibited
- MNAR stimulation of ER activity with ligand [2]: do not support MNAR stimulation of ER activity

Molecule: C[C@]12CC[C@@H]3c4ccc(O)cc4CC[C@H]3[C@@H]1CC[C@@H]2O [E2, 17β-estradiol, reference compound]
- phosphorylation of endogenous protein of approximately 34 kDa [3]: stimulated
- Erk 1 and 2 phosphorylation ([4]; MCF7 cells, 10 nM E2 for 5 minutes): Strong E2 induced stimulation
- level of total Erk 1 and 2 ([4]; MCF7 cells): Neither treatment with MNAR antisense oligonucleotides nor short treatment with E2 affected
- MNAR mRNA expression ([5]; MCF-7 cells, 10 nM E2 24 hours, normalized to GAPDH mRNA): substantially stimulated
- Src-ER-MNAR complex formation [6]: significant stimulation

Molecule: C[C@]12CC[C@@H]3c4ccc(O)cc4C[C@@H](CCCCCCCCC[S+]([O-])CCCC(F)(F)C(F)(F)F)[C@H]3[C@@H]1CC[C@@H]2O (stereo partly drawn) [ICI 182,780]
- MNAR stimulation of ER activity with ligand [2]: do not support MNAR stimulation of ER activity

Molecule: COc1cccc(-c2cc(=O)c3ccccc3o2)c1N [PD98059]
- effect of kinase inhibitor on MNAR stimulation of ER activity [2]: abrogate MNAR stimulation of ER activity

Molecule: CC(C)(C)n1nc(-c2ccc(Cl)cc2)c2c(N)ncnc21 [PP2]
- effect of kinase inhibitor on MNAR stimulation of ER activity [2]: abrogate MNAR stimulation of ER activity
- effect of Src inhibitor on MNAR stimulation of E2 induced ERα activity [2]: inhibited MNAR stimulation

Molecule: O=c1c(-c2ccc(O)cc2)coc2cc(O)cc(O)c12 [genesteine, genistein]
- effect of Src inhibitor on MNAR stimulation of E2 induced ERα activity [2]: inhibited MNAR stimulation

Molecule: MNAR antisense oligonucleotides: antisense (AS) CATGGAGATGTCCCGGAACAGTGCA (SEQ ID NO: 11) from Sequitur, Inc., targets MNAR (listed as DNA, chemistry not given here; listed as Homo sapiens)
- effect on E2 induced Erk 1 and 2 activation [4]: attenuated
- level of total Erk 1 and 2 ([4]; MCF7 cells): Neither treatment with MNAR antisense oligonucleotides nor short treatment with E2 affected
- MNAR level ([5]; MCF7 cells, 100 nM antisense, Western blotting with MNAR antibodies): attenuated
- MNAR expression ([5]; MCF-7 cells, 100 nM antisense, TaqMan and Western Blotting): significantly inhibited
- basal level of pS2 expression [7]: did not significantly affect
- E2-stimulated pS2 expression ([7]; 10 nM E2): dramatic reduction
- basal level of Cathepsin D expression [8]: did not significantly affect
- E2-stimulated Cathepsin D expression ([8]; 10 nM E2): dramatic reduction

Molecule: MNAR: novel ER interacting protein, 1130 amino acids, cloned from MCF-7 cells
- phosphorylation of endogenous protein of approximately 34 kDa [3]: dramatically augmented
- cSrc enzymatic activity [9]: strongly stimulates
- effect on E2 induced Erk 1 and 2 activation [4]: significantly enhanced
- ERα transcriptional activity on overexpression ([2]; HepG2 cells transfected with expression plasmid, 2xERE-tk-reporter): stimulation of ERα transcriptional activity

Molecule: mutant 2: MNAR mutant containing aa 1-469
- ability to enhance ER-stimulated transcription [10]: still able to augment ER transcriptional activity

Molecule: mutant 3: MNAR mutant containing aa 1-278
- ability to enhance ER-stimulated transcription [10]: still able to augment ER transcriptional activity

Molecule: mutant 4: MNAR mutant containing aa 1-189
- ability to enhance ER-stimulated transcription [10]: still able to augment ER transcriptional activity
